Laboratory results reported in ChEMBL document CHEMBL5604063, “ASAP - DENV-2 NS2B-NS3 protease fluorescence dose response” (2024).
“And” between values parts separate entries of the source, which are not always exact repeats. Equal values may be shown once.

Target: Genome polyprotein (dengue virus type 2, UniProt P29990)
Assay type: functional, Thailand/16681/1984

Chain of Genome polyprotein (P29990 1346-1475 limits assumed): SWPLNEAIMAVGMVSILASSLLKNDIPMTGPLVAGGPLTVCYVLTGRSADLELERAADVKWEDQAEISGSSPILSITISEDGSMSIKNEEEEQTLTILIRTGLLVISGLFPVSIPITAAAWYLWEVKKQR
Chain of Genome polyprotein (P29990 1476-2093 limits assumed): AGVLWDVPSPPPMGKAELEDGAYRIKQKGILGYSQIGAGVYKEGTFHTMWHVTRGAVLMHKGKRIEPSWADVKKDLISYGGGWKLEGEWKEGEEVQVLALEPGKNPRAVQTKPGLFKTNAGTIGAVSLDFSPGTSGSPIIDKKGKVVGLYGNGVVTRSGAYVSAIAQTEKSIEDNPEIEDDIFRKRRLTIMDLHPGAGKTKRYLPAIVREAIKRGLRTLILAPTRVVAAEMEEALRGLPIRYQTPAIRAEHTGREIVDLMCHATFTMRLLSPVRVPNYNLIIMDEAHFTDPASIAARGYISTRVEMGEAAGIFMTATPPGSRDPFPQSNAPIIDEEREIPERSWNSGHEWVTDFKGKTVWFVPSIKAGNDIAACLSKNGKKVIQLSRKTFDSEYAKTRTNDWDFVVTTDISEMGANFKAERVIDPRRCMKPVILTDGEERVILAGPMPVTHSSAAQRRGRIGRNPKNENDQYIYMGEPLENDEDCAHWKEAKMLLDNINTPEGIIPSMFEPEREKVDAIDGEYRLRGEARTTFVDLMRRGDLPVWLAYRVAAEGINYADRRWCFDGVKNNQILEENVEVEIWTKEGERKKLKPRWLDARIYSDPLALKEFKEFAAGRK

Cn1c(Sc2nc3ccccc3o2)nc2sccc2c1=O
IC50: > 99.5 µM

O=C(Nc1cc(Cl)cc(C(=O)Nc2n[nH]c3c2CNC32CC2)c1)OCc1ccccc1
IC50: 67.8 µM

O=C(Nc1cc(Cl)cc(C(=O)Nc2cccc(CO)c2)c1)OCc1ccccc1
IC50: > 99.5 µM

CN1CCC[C@H]1COc1cccc([C@@H](NC(=O)OCc2ccccc2)C(=O)Nc2cccc(CN)c2)c1
IC50: > 99.5 µM

Cc1ccc(CN)cc1-c1cccc([C@H](NC(=O)OCc2ccccc2)C(=O)Nc2cccc(CN)c2)c1
IC50: 63.1 µM

O=C(NCc1ccco1)c1csc(Br)c1
IC50: > 99.5 µM

Cc1cc(NC(=O)OCc2ccccc2)cc(C(=O)Nc2cccc(CN)c2)c1C
IC50: > 99.5 µM

CN(C)Cc1ccc(N2CCN(Cc3c[nH]c4ccccc34)CC2)nc1
IC50: > 99.5 µM

Nc1nc(S(=O)(=O)c2ccccc2)c(Cl)s1
IC50: > 99.5 µM

O=C(NCc1nccs1)c1sccc1Cl
IC50: > 99.5 µM

CCNC(=O)Nc1cc(Cl)cc(C(=O)Nc2cccc(CN)c2)c1
IC50: > 99.5 µM

Cc1ccc(NC(=O)OC(C)(C)C)c2[nH]cc(CN3CCC(c4cscn4)CC3)c12
IC50: > 99.5 µM

O=C(Nc1cc(Cl)cc(C(=O)Nc2cnc3n2CCNC3)c1)OCc1ccccc1
IC50: > 99.5 µM

NCc1cccc(NC(=O)[C@@H]2CCC[C@@H](NC(=O)OCc3ccccc3)C2)c1
IC50: > 99.5 µM

CN(C)CCC(=O)N1CCC([C@@H](NC(=O)OCc2ccccc2)C(=O)Nc2cccc(CN)c2)CC1
IC50: > 99.5 µM

c1ccc(CC2CCN(Cc3c[nH]c4ccccc34)CC2)cc1
IC50: > 99.5 µM

O=C(N[C@@H](C(=O)Nc1n[nH]c2c1CNC21CC1)c1ccc(OCc2ccccc2)cc1)OCc1ccccc1
IC50: > 99.5 µM

c1cc(-c2nnc(NCc3nnn[nH]3)s2)no1
IC50: > 99.5 µM

O=c1ccc(-n2cncn2)nn1CC=Cc1ccccc1
IC50: > 99.5 µM

CCSc1nnc(SCCn2nc3ccccn3c2=O)s1
IC50: > 99.5 µM

Cn1nc(NC(=O)[C@@H](NC(=O)OCc2ccccc2)c2ccc(OCc3ccccc3)cc2)c2c1CNC2
IC50: > 99.5 µM

COc1ccc(-n2nnnc2SC(F)F)cc1
IC50: > 99.5 µM

O=c1ccccn1-c1ncc(Br)cn1
IC50: > 99.5 µM

O=C(Nc1cc(Cl)cc(C(=O)Nc2cc3n(n2)CCNC3)c1)OCc1ccccc1
IC50: > 99.5 µM

NCc1cccc(NC(=O)[C@@H](NC(=O)OCc2ccccc2)c2cccc(-c3cncnc3)c2)c1
IC50: > 99.5 µM

O=c1c2cccn2cnn1Cc1cnc(Cl)s1
IC50: > 99.5 µM

Cc1nnsc1Cn1ccc(Br)n1
IC50: > 99.5 µM

O=c1c2ccccc2ncn1CCCn1cnc2ccccc2c1=O
IC50: > 99.5 µM

NCc1cccc(C(=O)Nc2cc(Cl)cc(NC(=O)OCc3ccccc3)c2)c1
IC50: 67.5 µM

O=S1(=O)CCN(CC#Cc2ccc3sncc3c2)CC1
IC50: > 99.5 µM

NCc1cccc(NC(=O)[C@@H](NC(=O)OCc2ccccc2)c2ccc(Br)c(Cl)c2)c1
IC50: 9.1 µM and 8.4 µM

COC(=O)c1cc2scc(Br)c2[nH]1
IC50: > 99.5 µM

O=C(Nc1cc(Cl)cc(C(=O)N[C@]2(c3nnn[nH]3)CCOC2)c1)OCc1ccccc1
IC50: > 99.5 µM

N#Cc1csc(CSc2nnc(C(F)(F)F)s2)n1
IC50: > 99.5 µM

O=C(O)c1cc(Cl)cc(NS(=O)(=O)c2ccc(-c3ccc(F)cc3)cc2)c1
IC50: 90.6 µM

O=C(Nc1cc(Cl)cc(C(=O)Nc2nc3c(s2)CNC3)c1)OCc1ccccc1
IC50: > 99.5 µM

c1cc(Cc2noc(CCc3cscn3)n2)no1
IC50: > 99.5 µM

CCn1c(=O)c(N2CC[C@H](CO)C2)nc2ccc(C(=O)OC)cc21
IC50: 82.9 µM

c1csc(CSc2nnc(Cn3cncn3)o2)c1
IC50: > 99.5 µM

O=C1O[C@H]2CCN(Cc3ccc(OCc4ccccc4)cc3)C[C@H]12
IC50: > 99.5 µM

FC(F)(F)c1nnc(COc2cncnc2)s1
IC50: > 99.5 µM

CCc1cc(C(=O)Nc2cccc(-c3nnn[nH]3)c2)sc1-c1ccc(Cl)cc1
IC50: 6.08 µM and 5.66 µM

Cc1[nH]c2ccccc2c1CN1CCC(c2c[nH]c3ncccc23)CC1
IC50: > 99.5 µM

c1cnc2[nH]cc(C3CCN(Cc4c[nH]c5cnccc45)CC3)c2c1
IC50: > 99.5 µM

CC(C)[C@H]1C(=O)O[C@@H]1C(=O)O
IC50: > 99.5 µM

NCc1cccc(S(=O)(=O)Cc2cc(Cl)cc(NC(=O)OCc3ccccc3)c2)c1
IC50: > 99.5 µM

NCc1cccc(NC(=O)c2cc(N)cc(NC(=O)OCc3ccccc3)c2)c1
IC50: > 99.5 µM

CSCc1nnc(SCc2ccncc2)o1
IC50: > 99.5 µM

CN1CCc2nc(NC(=O)[C@@H](NC(=O)OCc3ccccc3)c3ccc(OCc4ccccc4)cc3)sc2C1
IC50: > 99.5 µM

CCN1CC[C@@H](COc2ccc([C@@H](NC(=O)OCc3ccccc3)C(=O)Nc3cccc(CN)c3)cc2)C1
IC50: > 99.5 µM

c1csc(-c2nnc(Sc3ncnc4sccc34)o2)c1
IC50: > 99.5 µM

Cn1nc(NC(=O)c2cc(Cl)cc(NC(=O)OCc3ccccc3)c2)c2c1CNC2
IC50: 89.1 µM

c1ccc([C@H](NCc2c[nH]c3ccccc23)c2cccnc2)cc1
IC50: > 99.5 µM

CC[C@@H](NCc1c[nH]c2ccccc12)c1cccnc1
IC50: > 99.5 µM

NC[C@@H]1CN(c2cc(N3CC[C@H](N)C3)cc3c2COB3O)C(=O)O1
IC50: > 99.5 µM

O=C(O)c1cc(Cl)ccc1NS(=O)(=O)c1ccc(Nc2ccccc2F)nc1
IC50: 43.2 µM

NCc1cccc(NC(=O)C[C@@H](NC(=O)OCc2ccccc2)c2ccc(Cl)c(Br)c2)c1
IC50: 12.4 µM and 12.2 µM

O=C(Nc1cc(Cl)cc(C(=O)Nc2ccc3c(c2)CNCC3)c1)OCc1ccccc1
IC50: 57.8 µM

c1ccc([C@@H]2C[C@H]3C[C@@H]2C[C@H]3NCc2n[nH]c3ccccc23)cc1
IC50: > 99.5 µM
